Assay results reported in publication PMC6268972, “Antiproliferative, Antimicrobial and Apoptosis Inducing Effects of Compounds Isolated from Inula viscosa” (Molecules, 2012).
Converted amounts (≈) assume the structure as drawn. Like-named read-outs stand apart in the source and are kept apart here.

Key:
Candida albicans = assay: Microtiter plate dilution MIC, C. albicans; type: cell-based; conditions: for MIC: Candida albicans, read-out: Minimum inhibitory concentration (MIC) C.a
Experimental: (§1) The microbial strains used in this study were Escherichia coli (ATCC 10798), Salmonella typhimurium (ATCC14028), Methicillin resistant Staphylococcus aureus (MRSA, Clinical isolate), Bacillus cereus (Toxigenic strain TS), and Candida albicans (ATCC 90028). Bacterial strains were stocked onto nutrient agar slant at 4 °C, and Candida albicans was stocked onto malt agar slant at 4 °C.
(§2) The microtiter plate dilution method was used to determine the MIC (minimum inhibitory concentration) of compounds under study. Sterile 96-well microplates (Nunc) were used for the assay. Stock compounds were dissolved in DMSO so that the final concentrations in micro wells were less than 1% DMSO and solvent controls were run at these concentrations. Positive controls of penicillin G and tetracycline (Oxoid, Hampshire, UK) were prepared at the following concentrations 2, 4, 8, 16, 31, 62.5, 125, and 250 μg/mL. 1% DMSO was used as a solvent control. Compounds were diluted to twice the desired initial test concentration (250 µg/mL) with Muller Hinton broth (MHB) (Oxoid). All wells, except the first were filled with MHB (50 μL). Compounds (100 μL) were added to the first well and serial two-fold dilutions were made down to the desired minimum concentration (2 μg/mL). An over-night culture of bacteria suspended in MHB was adjusted to turbidity equal to 0.5 McFarland standard. The plates were inoculated with bacterial suspension (50 μL/well) and incubated at 37 °C for 24 h. Then the turbidity was measured using micro-plate reader (Biotek) at 620 nm wavelength. The same procedure was used to determine the antifungal activity of compounds against Candida albicans. The medium used was malt extract broth. The yeast cells were suspended in 0.85% saline, with an optical density equivalent to 0.5 McFarland standard, and diluted 1:100 in malt extract broth to obtain the working concentration. After 24 h incubation with each compound, the turbidity was measured at 530 nm wavelength using a spectrophotometer (Biotek). Percentage inhibition for tested microorganisms was calculated using the following formula:
(§3) MIC was determined as the lowest concentration of the compound that causes complete inhibition (100%) of each microorganism.

[1] = test system: Methicillin resistant Staphylococcus aureus (MRSA); assay: Microtiter plate dilution MIC, MRSA; type: cell-based; conditions: 24 h; for MIC: Staphylococcus aureus, MRSA, read-out: Minimum inhibitory concentration (MIC) MRSA
Experimental: as §1, §2, §3

Escherichia coli = assay: Microtiter plate dilution MIC, E. coli; type: cell-based; conditions: for MIC: Escherichia coli, read-out: Minimum inhibitory concentration (MIC) E.c
Experimental: as §1, §2, §3

Salmonella typhimurium = assay: Microtiter plate dilution MIC, S. typhimurium; type: cell-based; conditions: for MIC: Salmonella enterica, ATCC 14028 / TYPHIMURIUM, read-out: Minimum inhibitory concentration (MIC) S.t
Experimental: as §1, §2, §3

Bacillus cereus = assay: Microtiter plate dilution MIC, B. cereus; type: cell-based; conditions: 24 h; for MIC: Bacillus cereus, read-out: Minimum inhibitory concentration (MIC) B.c
Experimental: as §1, §2, §3

MCF-7 cells = assay: MTT antiproliferative activity assay, MCF-7; type: cell-based, human; conditions: for IC50: Homo sapiens, read-out: IC50 MCF-7
Experimental: (§4) Hep-2 (larynx carcinoma, ATCC: CCL-23), MCF-7 (breast epithelial adenocarcinoma, ATCC: HTB-22), and Vero (African green monkey kidney, ATCC: CCL-81) cell lines were kindly provided by Dr. Mona Hassuneh (Department of Biological Sciences, University of Jordan). Cells were grown in Minimum Essential Medium Eagle (Gibco, Paisley UK) supplemented with 10% heat inactivated fetal bovine serum (Gibco, Paisley UK), 29 μg/mL L-glutamine, and 40 μg/mL gentamicin. Cells were incubated in a humidified atmosphere of 5% CO2 at 37 °C.
(§5) The antiproliferative activity of Inula viscosa compounds was measured using the MTT (3-(4,5-dimethylthiazol-2-yl)-2,5-diphenyltetrazolium bromide) assay (Promega, Madison, WI, USA). The assay detects the reduction of MTT by mitochondrial dehydrogenase to blue formazan product, which reflects the normal function of mitochondria and cell viability. Exponentially growing cells were washed and seeded at 17,000 cells/well for Hep-2 cell line and 11,000 cells/ well for MCF-7 cell line (in 200 μL of growth medium) in 96 well microplates (Nunc, Roskilde, Denmark). After 24 h incubation, a partial monolayer was formed then the media was removed and 200 μL of the medium containing the compound (initially dissolved in DMSO) were added and re-incubated for 48 h. Then 100 μL of the medium were aspirated and 15 μL of the MTT solution were added to the remaining medium (100 μL) in each well. After 4 h contact with the MTT solution, blue crystals were formed. One hundred μL of the stop solution were added and incubated further for 1 h.
(§6) Reduced MTT was assayed at 550 nm using a microplate reader (Biotek, Winooski, VT, USA). Control groups received the same amount of DMSO (0.1%).Untreated cells were used as a negative control while, cells treated with vincristine sulfate were used as a positive control. Eight concentrations (150, 100, 50, 20, 10, 5, 2, and 1 μg/mL) were prepared from each compound and tested against the three cell lines. IC50 values were calculated as the concentrations that show 50% inhibition of proliferation on any tested cell line. Stock solutions of the compounds were dissolved in (DMSO) then diluted with the medium and sterilized using 0.2 μm membrane filters. The toxicity of DMSO was determined and the final dilution of compounds used for treating the cells contained not more than 0.1% (non toxic concentration) DMSO. IC50 values were reported as the average of three replicates. The antiproliferative effect of the tested compounds was determined by comparing the optical density of the treated cells against the optical density of the control (cells treated with media containing 0.1% DMSO).

Hep-2 cells = assay: MTT antiproliferative activity assay, Hep-2; type: cell-based; conditions: for IC50: Homo sapiens, read-out: IC50 Hep-2
Experimental: as §4, §5, §6

Vero cells = assay: MTT antiproliferative activity assay, Vero; type: cell-based, African green monkey; conditions: for IC50: Chlorocebus sabaeus, Vero, read-out: IC50 Vero
Experimental: as §4, §5, §6

[2] = ATCC 90028, malt extract broth, 24 h, 100% inhibition
[3] = clinical isolate, 100% inhibition
[4] = ATCC10798, ATCC 10798, 24 h, 100% inhibition
[5] = ATCC14028, 24 h, 100% inhibition
[6] = Toxigenic strain TS, 100% inhibition
[7] = MTT, 48 h treatment, average of three replicates
[8] = ATCC 10798, 24 h, 100% inhibition

Compound	Minimum inhibitory concentration (MIC) C.a (Candida albicans; [2]) [µg/mL]	IC50 MCF-7 (MCF-7 cells; [7]) [µg/mL]	IC50 Hep-2 (Hep-2 cells; [7]) [µg/mL]	IC50 Vero (Vero cells; [7]) [µg/mL]	Minimum inhibitory concentration (MIC) MRSA [1, 3] [µg/mL]	Minimum inhibitory concentration (MIC) E.c (Escherichia coli; [8]) [µg/mL]	Minimum inhibitory concentration (MIC) S.t (Salmonella typhimurium; [5]) [µg/mL]	Minimum inhibitory concentration (MIC) B.c (Bacillus cereus; [6]) [µg/mL]	also measured
C[C@@H]1[C@H](O)[C@@H](C)/C=C/C=C/CC/C=C/C=C/C=C/C=C/C(O[C@H]2O[C@H](C)[C@@H](O)[C@H](N)[C@@H]2O)CC2O[C@](O)(CC(O)C(O)CCC(O)CC(O)CC(O)CC(=O)O[C@H]1C)CC(O)C2C(=O)O (stereo partly drawn) [Nystatin, reference compound]	25 (≈ 27 µM)	–	–	–	–	–	–	–	–
CC1(C)S[C@@H]2[C@H](NC(=O)Cc3ccccc3)C(=O)N2[C@H]1C(=O)O [Penicillin G, reference compound]	–	–	–	–	–	–	–	–	MIC [1, 3]: > 250 µg/mL; MIC (Escherichia coli; [4]): 125 µg/mL (≈ 374 µM); MIC (Salmonella typhimurium; [5]): 125 µg/mL (≈ 374 µM); MIC (Bacillus cereus; [6]): > 250 µg/mL
2-Desacetoxyxanthinin	>250	>150	>150	>150	>250	>250	>250	>250	–
C=C(C(=O)O)[C@@H]1CC[C@@]2(C)CC[C@@H](O)C(=C)C2C1 (stereo partly drawn) [Viscic acid]	>250	>150	>150	>150	>250	>250	>250	>250	–
COc1cc(O)c2c(c1)O[C@H](c1ccc(O)c(O)c1)[C@@H](OC(C)=O)C2=O [3-O-Acetylpadmatin]	>250	>150	>150	>150	>250	>250	>250	>250	–
COc1c(O)cc2oc(-c3ccc(O)cc3)cc(=O)c2c1O [Hispidulin]	–	–	–	–	–	–	–	–	IC50 (MCF-7 cells; MCF7, 48 h): 10.3 ± 1.85 µg/mL (≈ 34.5 µM); IC50 (Hep-2 cells; HEp-2, 48 h): 19.5 ± 1.06 µg/mL (≈ 64.9 µM); IC50 (Vero cells; 48 h): 105 ± 2.35 µg/mL (≈ 351 µM); MIC [1]: > 250 µg/mL; MIC (Escherichia coli; ATCC10798, 24 h): > 250 µg/mL; MIC (Salmonella typhimurium; 24 h): > 250 µg/mL; MIC (Bacillus cereus): > 250 µg/mL; MIC (Candida albicans; ATCC90028, 24 h): > 250 µg/mL
C=C(C(=O)O)[C@@H]1CC[C@@]2(C)CCC[C@@](C)(O)[C@@H]2C1 [Ilicic acid]	–	–	–	–	–	–	–	–	IC50 (MCF-7 cells; MCF7, MTT, 48 h treatment, average of three replicates): > 150 µg/mL; IC50 (Hep-2 cells; HEp-2, MTT, 48 h treatment, average of three replicates): > 150 µg/mL; IC50 (Vero cells; [7]): > 150 µg/mL; MIC [1, 3]: > 250 µg/mL; MIC (Escherichia coli; [4]): > 250 µg/mL; MIC (Salmonella typhimurium; [5]): > 250 µg/mL; MIC (Bacillus cereus; [6]): > 250 µg/mL; MIC (Candida albicans; ATCC90028, ATCC 90028, malt extract broth, 24 h, 100% inhibition): > 250 µg/mL
